Assay results from patent US20250059141A1, “TLR MODULATOR AND USE THEREOF” (DUALITY BIOLOGICS (SUZHOU) CO., LTD., priority 2021, published 2025).

Tests used:
[1] = target: T1, hTLR8 (human Toll-like receptor 8) (Homo sapiens, UniProt Q9NR97); assay: HEK-Blue hTLR8 reporter assay (QUANTI-Blue, OD650); type: cell-based; conditions: HEK-Blue hTLR8 cells, 24 h; class symbols; read-out: Reporter assay TLR8 EC50
T1 construct: host or cells: HEK-Blue hTLR8 (HEK293-derived reporter cells)
T1 sequence (Q9NR97 27-1041): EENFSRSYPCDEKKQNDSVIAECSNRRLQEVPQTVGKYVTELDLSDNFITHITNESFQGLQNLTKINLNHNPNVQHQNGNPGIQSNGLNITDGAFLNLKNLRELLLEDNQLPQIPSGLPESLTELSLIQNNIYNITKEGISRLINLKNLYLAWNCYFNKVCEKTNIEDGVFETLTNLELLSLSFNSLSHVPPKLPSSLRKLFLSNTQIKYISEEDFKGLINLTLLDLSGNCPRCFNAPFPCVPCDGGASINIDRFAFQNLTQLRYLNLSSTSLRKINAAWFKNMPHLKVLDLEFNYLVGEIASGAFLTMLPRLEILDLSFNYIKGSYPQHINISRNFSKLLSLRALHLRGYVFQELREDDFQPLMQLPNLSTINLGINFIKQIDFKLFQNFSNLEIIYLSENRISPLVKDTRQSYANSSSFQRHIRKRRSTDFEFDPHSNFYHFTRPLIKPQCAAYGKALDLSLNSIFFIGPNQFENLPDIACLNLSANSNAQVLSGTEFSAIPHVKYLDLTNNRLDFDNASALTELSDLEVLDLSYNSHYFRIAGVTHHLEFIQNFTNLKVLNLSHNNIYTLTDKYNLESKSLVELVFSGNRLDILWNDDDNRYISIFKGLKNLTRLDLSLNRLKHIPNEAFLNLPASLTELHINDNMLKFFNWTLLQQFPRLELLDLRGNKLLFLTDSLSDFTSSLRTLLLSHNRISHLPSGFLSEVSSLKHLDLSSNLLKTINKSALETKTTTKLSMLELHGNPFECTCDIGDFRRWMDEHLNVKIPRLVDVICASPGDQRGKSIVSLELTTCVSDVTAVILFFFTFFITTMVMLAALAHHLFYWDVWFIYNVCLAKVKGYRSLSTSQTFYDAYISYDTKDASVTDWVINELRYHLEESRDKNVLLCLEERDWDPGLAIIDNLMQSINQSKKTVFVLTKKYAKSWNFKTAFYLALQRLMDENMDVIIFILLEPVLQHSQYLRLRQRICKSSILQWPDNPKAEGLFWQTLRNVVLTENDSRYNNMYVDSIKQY
Method: In this example, the agonistic activity of the compounds of the present application on hTLR7 (human Toll-like receptor 7) and hTLR8 (human Toll-like receptor 8) was assessed; the induction activity of the compounds on human PBMCs for TNF-α and IFN-α production was assessed in human PBMCs (human peripheral blood mononuclear cells).
All compounds were formulated in DMSO into 30 mM stock solutions and preserved at 4° C. The reference compound ([…], Cat. No. tlrl-r848-5) was purchased from InvivoGen and formulated into a 5 mg/mL stock solution in DMSO and preserved in a freezer at −20° C. HEK-Blue hTLR7 and HEK-Blue hTLR8 cell lines were purchased from InvivoGen, and human PBMCs were purchased from Shanghai Saily Biotechnology Co., Ltd. (Cat. No. XFB—HP100B).
The major instruments used in this study were multifunctional microplate reader Flexstation III (Molecular Device), Envision (Perkin Elmer), M2e (Molecular Device), and Echo555 (Labcyte). 2.1 Agonistic activity of compounds on hTLR7 (human Toll-like receptor 7) and hTLR8 (human Toll-like receptor 8)
Compound dilution: The compounds of the present application are diluted in DMSO, for example, to about 15 mM. The reference compound was added to the plates in sequence after dilution. The compounds were serially 3-fold diluted to 10 concentrations and added to 96-well plates in duplicate.
For the negative control wells, DMSO was added at 0.2 μL/well, and the reference compound was added to the positive control wells. The final concentration of DMSO was 0.2%.
Cell plating: When an 80% confluence of HEK Blue hTLR7&8 cells in the culture flask was observed under a microscope, the culture medium was discarded, 10 mL of detection medium was added, and the cells were separated by pipetting. The cells were counted on a cytometer and diluted to 500,000 cells/mL. The cells were plated at 100 μL/50,000 cells/well in the 96-well plates containing the compounds. The compounds and cells were co-incubated at 37° C. in a 5% CO2 incubator for 24 hours.
Compound activity detection: 20 μL of cell supernatant was taken from each well and added to a plate containing QUANTI-Blue™ reagent at 180 μL/well. The plate was incubated at 37° C. for 1 hour, and the absorbance at 650 nm (OD650) was measured on the multifunctional microplate reader Flexstation III.
Compound activity data analysis: The OD650 values were analyzed by GraphPad Prism software and fitted to give dose-response curves of the compounds. The EC50 values of compounds were calculated.

[2] = tested on: TNF-α production in human PBMCs; assay: Induction of TNF-α in human PBMCs (ELISA); type: cell-based; conditions: PBMC, 24 h, serial 4-fold dilutions, class symbols, read-out: PBMC assay TNFa EC50
Method: In this example, the induction activity of the compounds of the present application on human PBMCs for TNF-α and IFN-α production was assessed in human PBMCs (human peripheral blood mononuclear cells). The human PBMCs were purchased from Shanghai Saily Biotechnology Co., Ltd. (Cat. No. XFB—HP100B). PBMC cells were treated with the compounds. The compounds of the present application are diluted in DMSO, for example, to about 15 mM. The reference compound was added to the plates in sequence after diluted to 5 mg/mL. The compounds were serially 3- or 4-fold diluted to 8 concentrations and added to plates in duplicate (Table 2-1 for serial 3-fold dilutions and Table 2-2 for serial 4-fold dilutions). For the negative control wells, DMSO was added at 0.4 μL/well, and a 5 mg/mL reference compound solution was added to the positive control wells at 0.4 μL/well. The final concentration of DMSO was 0.2%. Frozen human PBMCs in cryopreservation tubes were quickly thawed in a 37° C. water bath and transferred into 50-mL centrifuge tubes. Prewarmed RPMI1640 medium was gradually added and the mixture was well mixed and centrifuged for 15 min before the supernatant was discarded. The cells were resuspended in a culture medium and counted. The cell suspension was adjusted to 2.5×10^6 cells/mL with the culture medium. Diluted cells were added at 200 μL/500,000 cells/well in 96-well plates containing the compounds. The cell plates were incubated at 37° C./5% CO2 for 24 h.
The plate was then washed thrice. […] Termination of reaction: The reaction was terminated by quickly adding the stop solution at 100 μL/well. Plate reading: The reading at wavelength 450 nm was detected by an M2e instrument within 10 min after the termination.
Compound activity data analysis: The OD450 values were converted to TNF-α and IFN-α contents by GraphPad Prism software analysis and fitted to give dose-response curves of the compounds. The EC50 values for the compounds were calculated, where the Emax values are the maximal values for TNF-α and IFN-α.

Row | Compound | EC50 [1] [nM] | EC50 [2] [nM]
1 | CCCN(OCc1ccc(N)cc1)C(=O)C1=Cc2ccc(C(=O)N[C@H]3C[C@@H]3c3ccccc3)cc2N=C(N)C1 [Compound 78] | ≤ 10 | ≤ 10
2 | CCCN(OCc1ccc(N)cc1)C(=O)C1=Cc2ccc(C(=O)NC3COC3)cc2N=C(N)C1 [Compound 81] | 10 to 100 | 10 to 50
3 | CCCN(OCc1ccc(N)cc1)C(=O)C1=Cc2ccc(C(=O)NC3CCCCC3)cc2N=C(N)C1 [Compound 82] | ≤ 10 | ≤ 10
4 | CCCN(OCc1ccc(N)cc1)C(=O)C1=Cc2ccc(C(=O)NC3CCOCC3)cc2N=C(N)C1 [Compound 84] | 10 to 100 | ≤ 10
5 | CCCN(OCc1ccc(N)cc1)C(=O)C1=Cc2ccc(C(=O)Nc3cncc(OC)c3)cc2N=C(N)C1 [Compound 85] | ≤ 10 | ≤ 10
6 | CCCN(OCc1ccc(N)cc1)C(=O)C1=Cc2ccc(C(=O)Nc3cccc(CN)c3)cc2N=C(N)C1 [Compound 86] | ≤ 10 | ≤ 10
7 | CCCN(OCc1ccc(N)cc1)C(=O)C1=Cc2ccc(C(=O)Nc3ncco3)cc2N=C(N)C1 [Compound 87] | ≤ 10 | ≤ 10
8 | CCCN(OCc1ccc(N)cc1)C(=O)C1=Cc2ccc(C(=O)Nc3ccn(C)n3)cc2N=C(N)C1 [Compound 88] | ≤ 10 | ≤ 10
9 | CCCN(OCc1ccc(N)cc1)C(=O)C1=Cc2ccc(C(=O)Nc3ccc4cn[nH]c4c3)cc2N=C(N)C1 [Compound 89] | 10 to 100 | 10 to 50
10 | CCCN(OCc1ccc(N)cc1)C(=O)C1=Cc2ccc(C(=O)Nc3ccc4c(c3)CNC4)cc2N=C(N)C1 [Compound 90] | ≤ 10 | ≤ 10
11 | CCCN(OCc1ccc(N)cc1)C(=O)C1=Cc2ccc(C(=O)N3CCN(C)CC3)cc2N=C(N)C1 [Compound 93] | ≤ 10 | ≤ 10
12 | CCCN(OCc1ccc(N)cc1)C(=O)C1=Cc2ccc(C(=O)N3CC(Oc4ccccc4)C3)cc2N=C(N)C1 [Compound 94] | ≤ 10 | ≤ 10
13 | CCCN(OCc1ccc(N)cc1)C(=O)C1=Cc2ccc(C(=O)N3CC4(COC4)C3)cc2N=C(N)C1 [Compound 95] | ≤ 10 | ≤ 10
14 | CCCN(OCc1ccc(N)cc1)C(=O)C1=Cc2ccc(C(=O)N3CCN(c4ccccc4)CC3)cc2N=C(N)C1 [Compound 97] | ≤ 10 | ≤ 10

Now from value to compound, other results behind:

Row | EC50 [1] [nM] | Compound | EC50 [2] [nM]
15 | ≤ 10 | CCCN(OCc1ccc(N)cc1)C(=O)C1=Cc2ccc(-c3cncc(S(=O)(=O)N4CCNCC4)c3)cc2N=C(N)C1 [Compound 69] | ≤ 10
16 | ≤ 10 | CCCN(OCc1ccc(N)cc1)C(=O)C1=Cc2ccc(-c3cncc(S(=O)(=O)NCCO)c3)cc2N=C(N)C1 [Compound 70] | ≤ 10
17 | ≤ 10 | CCCN(OCc1ccc(N)cc1)C(=O)C1=Cc2ccc(-c3cncc(S(=O)(=O)N4CCC(O)CC4)c3)cc2N=C(N)C1 [Compound 71] | ≤ 10
18 | ≤ 10 | CCCN(OCc1ccc(N)cc1)C(=O)C1=Cc2ccc(-c3cncc(S(=O)(=O)N4CC[C@H](O)C4)c3)cc2N=C(N)C1 [Compound 72] | ≤ 10
19 | ≤ 10 | CCCN(OCc1ccc(N)cc1)C(=O)C1=Cc2ccc(-c3cncc([S+](C)[O-])c3)cc2N=C(N)C1 (stereo not drawn) [Compound 73] | ≤ 10
20 | ≤ 10 | CCCN(OCc1ccc(N)cc1)C(=O)C1=Cc2ccc(C(=O)NC(C)(C)c3ccccc3)cc2N=C(N)C1 [Compound 76] | ≤ 10
21 | ≤ 10 | CCCN(OCc1ccc(N)cc1)C(=O)C1=Cc2ccc(C(=O)N[C@@H](C)c3ccccc3)cc2N=C(N)C1 [Compound 77] | ≤ 10
